How the values were obtained:
carbonic anhydrase II = carbonic anhydrase II (Homo sapiens (Human), UniProt P00918); assay: Carbonic anhydrase II enzyme activity inhibition (4-NPA esterase activity); type: biochemical; conditions: for IC50: 4-nitrophenyl acetate esterase activity, absorbance at 405 nm
[1] = tested on: human osteo- and soft tissue sarcoma SJCRH30 cell line; assay: Cell growth inhibition 2, SJCRH30; type: cell-based; conditions: 384-well plate
[2] = tested on: Human colon cancer HCT-116 cell lines; assay: Antitumor effect on tumor cells transplanted into mice 1; type: in vivo; conditions: for T/C15 (%): HCT-116 s.c. in BALB/cAJcl-nu/nu mice; for RTV15 comparison with the control: Dunnett's test; for BWC15 (%) Mean ± SD: body weight change
Experimental: Human colon cancer HCT-116 cell lines were washed in PBS and suspended at a concentration of 4×10^7 cells/mL. 0.1 mL of this cell suspension was subcutaneously implanted in the right chest of 6-week-old BALB/cAJcl-nu/nu mice (produced by CLEA Japan, Inc.).
(§1) The length and the width of the implanted tumor and the body weight were measured. The tumor volume (TV) was calculated using the following equation (equation D). TV(mm3)=(length×width^2)/2, wherein the unit of length and width is mm (equation D).
When the TV reached 100 to 300 mm3, the animals were assigned to each group in accordance with a stratified randomization procedure. The day was considered day 1, the TV on the day was considered TV1, and the body weight on the day was considered BW1.
A required amount of the test compound was weighed to prepare an administration solution.
(§2) Thereafter, the length and the width of the tumor and the body weight (BWn) on day n were measured over time in the same manner, and the TVn of each mouse was calculated. Further, the relative tumor volume (RTVn) was calculated based on the TVn of each mouse using the following equation (equation E); the treatment/control (T/C) value (%) was calculated based on the mean RTVn of each drug administration group using the following equation (equation F); and the weight change rate (BWCn) was calculated using the following equation (equation G). RTVn=TVn/TV1 (equation E) T/Cn(%)=(mean RTV of each drug administration group on the last day of the test)/(mean RTV of the control group on the last day of the test)×100 (equation F) BWCn (%)=(BWn−BW1)/BW1×100 (equation G) FIGS. 1 and 2, and Table 21 below show the results.

[3] = tested on: Human colon cancer HCT-116 cell lines; assay: Antitumor effect on tumor cells transplanted into mice 2; type: in vivo
[4] = tested on: human acute lymphoblastic leukemia (ALL) CCRF-CEM cell lines; assay: Antitumor effect on tumor cells transplanted into mice 3; type: in vivo; conditions: for RTV comparison with the control on day 15 / T/C15 / RTV comparison with the Comparative Example / BWC15 Mean ± SD: CCRF-CEM xenograft in nude mice; for RTV comparison with the control on day 15 / RTV comparison with the Comparative Example: compound hydrochlorides intravenously, Dunnett's test; for T/C15 / BWC15 Mean ± SD: 50 mg/kg/day intravenous; for T/C15: administration days 1, 8, day 15; for BWC15 Mean ± SD: body weight change rate, days 1, 8, day 15; for change of the body weight compared with the control: CCRF-CEM xenograft mice
Experimental: as §1, §2
The tumor growth inhibitory effects on human tumors were evaluated as in Test Example 5, except that the compound hydrochloride obtained in Example 122, the compound hydrochloride (Example 64), and human acute lymphoblastic leukemia (ALL) CCRF-CEM cell lines were used, and the animals were assigned to each group in accordance with a stratified randomization procedure when the TV reached 140 to 380 mm3.
At this time, the cell lines were washed in PBS, and suspended in 50% PBS and 50% Matrigel basement membrane matrix (#356237; produced by BD Biosciences) at a concentration of 1×10^8 cells/mL. 0.1 mL of this cell suspension was subcutaneously implanted to the right chest of 6-week-old BALB/cAJcl-nu/nu mice (nude mice) (produced by CLEA Japan, Inc.). The compound hydrochloride (Example 122) was intravenously administered in an amount of 5 mL per 1 kg of body weight on days 1 and 8, and the compound hydrochloride (Example 133) was intravenously administered in an amount of 5 mL per 1 kg of body weight on days 1 and 8.

[5] = tested on: human acute lymphoblastic leukemia (ALL) CCRF-CEM cell lines; assay: as above; type: in vivo; conditions: CCRF-CEM xenograft in nude mice, 120 mg/kg/day intravenous
[6] = biological target: NAE (heterodimer of APPBP1 and UBA3) (Homo sapiens (Human), UniProt Q8TBC4); assay: Nedd8 conjugation inhibitory activity (AlphaScreen assay); type: biochemical; conditions: purified NAE, GST-UBC12, Biotin-Nedd8, ATP
Chain of NAE (heterodimer of APPBP1 and UBA3) (Q8TBC4 whole entry): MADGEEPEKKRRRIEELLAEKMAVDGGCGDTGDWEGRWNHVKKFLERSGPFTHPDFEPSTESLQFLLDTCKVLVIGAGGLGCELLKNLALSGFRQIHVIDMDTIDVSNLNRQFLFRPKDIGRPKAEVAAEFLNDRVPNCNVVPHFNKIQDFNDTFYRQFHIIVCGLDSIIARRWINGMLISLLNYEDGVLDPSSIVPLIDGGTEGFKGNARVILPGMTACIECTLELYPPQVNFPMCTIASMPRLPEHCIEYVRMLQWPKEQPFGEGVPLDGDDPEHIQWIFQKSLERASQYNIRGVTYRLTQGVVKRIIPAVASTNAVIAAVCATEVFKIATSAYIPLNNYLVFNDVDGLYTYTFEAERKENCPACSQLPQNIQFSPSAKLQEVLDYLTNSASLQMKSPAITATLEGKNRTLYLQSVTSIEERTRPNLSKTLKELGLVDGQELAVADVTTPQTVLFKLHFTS
Chain of NAE (heterodimer of APPBP1 and UBA3) (Q13564 whole entry partner): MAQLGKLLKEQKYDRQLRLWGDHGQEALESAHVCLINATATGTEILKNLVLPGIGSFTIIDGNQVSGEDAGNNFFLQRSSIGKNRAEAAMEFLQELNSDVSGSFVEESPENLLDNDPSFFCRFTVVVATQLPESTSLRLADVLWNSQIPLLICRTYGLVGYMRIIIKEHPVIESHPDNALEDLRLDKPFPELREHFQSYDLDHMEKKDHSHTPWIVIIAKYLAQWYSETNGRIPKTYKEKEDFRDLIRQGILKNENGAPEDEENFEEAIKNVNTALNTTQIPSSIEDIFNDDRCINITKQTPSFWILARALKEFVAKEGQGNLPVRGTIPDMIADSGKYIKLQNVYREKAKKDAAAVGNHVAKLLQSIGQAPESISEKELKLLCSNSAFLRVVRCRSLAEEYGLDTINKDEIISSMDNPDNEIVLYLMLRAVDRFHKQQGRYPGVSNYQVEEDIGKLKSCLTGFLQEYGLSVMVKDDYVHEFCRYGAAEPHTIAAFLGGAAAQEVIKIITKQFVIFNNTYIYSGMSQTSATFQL

[7] = 120 mg/kg/day intravenously on days 1, 4, 8, 11, day 15
[8] = 50 mg/kg/day intravenously on days 1, 4, 8, 11, day 15

NS(=O)(=O)OC[C@@H]1C[C@@H](n2ccc3c(N[C@H]4CCc5ccccc54)ncnc32)C[C@@H]1O [Comparative Example, N-[(1S)-1-indanyl]-7-[(1R)-3α-hydroxy-4α-(sulfamoyloxymethyl)cyclopentyl]-7H-pyrrolo[2,3-d]pyrimidin-4-amine, reference compound]
IC50 (carbonic anhydrase II): 0.012 µM
IC50 [1]: > 10000 nM

NS(=O)(=O)OC[C@@H]1C[C@@H](n2ccc3c(N[C@H]4CCc5ccccc54)ncnc32)C[C@H]1O [Comparative Example, N-[(1S)-1-indanyl]-7-[(1R)-3α-hydroxy-4α-(sulfamoyloxymethyl)cyclopentyl]-7H-pyrrolo[2,3-d]pyrimidin-4-amine, reference compound]
inhibitory activity against carbonic anhydrase II (carbonic anhydrase II): exhibited inhibitory activity
T/C15 (%) [2, 7]: 36%
RTV15 comparison with the control ([2]; HCT-116 xenograft): significantly lower than that of the control
BWC15 (%) Mean ± SD [2, 7]: −14.3 ± 5.1%
T/C15 ([3]; HCT-116 xenograft in mice, 120 mg/kg/day intravenous, administration days 1, 4, 8, 11, day 15): 51%
RTV15 comparison with the control ([3]; HCT-116 xenograft, hydrochloride compound of Example 55, Dunnett's test): significantly lower than that of the control
BWC15 Mean ± SD ([3]; body weight change rate, HCT-116 xenograft in mice, 120 mg/kg/day intravenous, days 1, 4, 8, 11, day 15): −8.4 ± 3.2%
RTV comparison with the control on day 15 [4]: significantly lower than that of the control
T/C15 ([5]; administration days 1, 4, 8, 11, day 15): 47%
BWC15 Mean ± SD ([5]; body weight change rate, days 1, 4, 8, 11, day 15): 6.1 ± 2.6%

Nc1ncnc2c1c(C#Cc1c(F)cccc1F)cn2[C@@H]1O[C@H](CNS(N)(=O)=O)[C@@H](O)[C@H]1O [Example 1, 4-Amino-5-[2-(2,6-difluorophenyl)ethynyl]-7-[(2R,3R,4S,5R)-3,4-dihydroxy-5-[(sulfamoylamino)methyl]tetrahydrofuran-2-yl]pyrrolo[2,3-d]pyrimidine]
T/C15 (%) [2, 8]: 23%
change of the body weight compared with the control ([2]; HCT-116 xenograft mice): within an acceptable degree
RTV comparison with the Comparative Example ([2]; HCT-116 xenograft, Aspin-Welch's t-test): significantly lower than that of the Comparative Example
RTV15 comparison with the control ([2]; HCT-116 xenograft): significantly lower than that of the control
BWC15 (%) Mean ± SD [2, 8]: −11.8 ± 4.7%

CCCOc1cccc(F)c1C#Cc1cn([C@@H]2O[C@H](CNS(N)(=O)=O)[C@@H](O)[C@H]2O)c2ncnc(N)c12 [Example 60, 4-Amino-7-[(2R,3R,4S,5R)-3,4-dihydroxy-5-[(sulfamoylamino)methyl]tetrahydrofuran-2-yl]-5-[2-(2-fluoro-6-propoxy-phenyl)ethynyl]pyrrolo[2,3-d]pyrimidine]
IC50 [6]: 0.0085 µM
IC50 (carbonic anhydrase II): > 1 µM

CN1CCOc2c1ccc(F)c2C#Cc1cn([C@@H]2O[C@H](CNS(N)(=O)=O)[C@@H](O)[C@H]2O)c2ncnc(N)c12 [Example 64, 8-[2-[4-Amino-7-[(2R,3R,4S,5R)-3,4-dihydroxy-5-[(sulfamoylamino)methyl]tetrahydrofuran-2-yl]pyrrolo[2,3-d]pyrimidin-5-yl]ethynyl]-7-fluoro-4-methyl-2,3-dihydro-1,4-benzoxazine]
IC50 [6]: 0.0094 µM
IC50 (carbonic anhydrase II): > 1 µM
T/C15 [4]: 8%
RTV comparison with the Comparative Example [4]: significantly lower than that of the Comparative Example
RTV comparison with the control on day 15 [4]: significantly lower than that of the control
BWC15 Mean ± SD [4]: 4.1 ± 1.6%

CCSc1cccc(F)c1C#Cc1cn([C@@H]2O[C@H](CNS(N)(=O)=O)[C@@H](O)[C@H]2O)c2ncnc(N)c12 [Example 66, 4-Amino-7-[(2R,3R,4S,5R)-3,4-dihydroxy-5-[(sulfamoylamino)methyl]tetrahydrofuran-2-yl]-5-[2-(2-ethylsulfanyl-6-fluoro-phenyl)ethynyl]pyrrolo[2,3-d]pyrimidine]
IC50 [6]: 0.0071 µM
IC50 (carbonic anhydrase II): > 1 µM

Nc1ncnc2c1c(C#Cc1c(F)cc(N3CC[C@@H](O)C3)cc1F)cn2[C@@H]1C[C@H](CNS(N)(=O)=O)[C@@H](O)[C@H]1O [Example 120, 4-Amino-5-[2-[2,6-difluoro-4-[(3R)-3-hydroxypyrrolidin-1-yl]phenyl]ethynyl]-7-[(1R,2S,3R,4R)-2,3-dihydroxy-4-[(sulfamoylamino)methyl]cyclopentyl]pyrrolo[2,3-d]pyrimidine]
IC50 [6]: 0.0043 µM
IC50 (carbonic anhydrase II): > 1 µM
RTV comparison with the control on day 15 [4]: significantly lower than that of the control
change of the body weight compared with the control [4]: almost the same as that of the control

CN1CCOc2c1ccc(F)c2C#Cc1cn([C@@H]2C[C@H](CNS(N)(=O)=O)[C@@H](O)[C@H]2O)c2ncnc(N)c12 [Example 122, 8-[2-[4-amino-7-[(1R,2S,3R,4R)-2,3-dihydroxy-4-[(sulfamoylamino)methyl]cyclopentyl]pyrrolo[2,3-d]pyrimidin-5-yl]ethynyl]-7-fluoro-4-methyl-2,3-dihydro-1,4-benzoxazine]
IC50 [6]: 0.02 µM
IC50 (carbonic anhydrase II): > 1 µM
T/C15 [4]: 6%
RTV comparison with the Comparative Example [4]: significantly lower than that of the Comparative Example
RTV comparison with the control on day 15 [4]: significantly lower than that of the control
BWC15 Mean ± SD [4]: 6.0 ± 4.5%

Nc1ncnc2c1c(C#Cc1cccc3ccccc13)cn2[C@@H]1O[C@H](COS(N)(=O)=O)[C@@H](O)[C@H]1O [Example 133, [(2R,3S,4R,5R)-5-[4-Amino-5-[2-(1-naphthyl)ethynyl]pyrrolo[2,3-d]pyrimidin-7-yl]-3,4-dihydroxy-tetrahydrofuran-2-yl]methyl sulfamate]
IC50 [6]: 0.025 µM
RTV comparison with the control on day 15 [4]: significantly lower than that of the control
change of the body weight compared with the control [4]: almost the same as that of the control

CCS(=O)(=O)c1cccc(F)c1C#Cc1cn([C@H]2C[C@H](O)[C@@H](CNS(N)(=O)=O)O2)c2ncnc(N)c12 [Example 143, 4-Amino-5-[2-(2-ethylsulfonyl-6-fluoro-phenyl)ethynyl]-7-[(2R,4S,5R)-4-hydroxy-5-[(sulfamoylamino)methyl]tetrahydrofuran-2-yl]pyrrolo[2,3-d]pyrimidine]
IC50 [6]: 0.024 µM
IC50 (carbonic anhydrase II): > 1 µM

From US9963456B2, “Pyrrolopyrimidine compound or salt thereof and compositions containing the pyrrolopyrimidine compound or salt thereof” (TAIHO PHARMACEUTICAL CO., LTD., priority 2014, dated 2018)
